In patent US20250127778A1, “CANCER IMMUNOTHERAPY COMPOSITION CONTAINING INTERACTION INHIBITOR OF STING AND TRIM29 AS ACTIVE INGREDIENT” (SPARK BIOPHARMA, INC, priority 2021, published 2025):

Legend:
[1] = tested on: TRIM29-mediated Lys48 polymerized multi-ubiquitination of STING; assay: ELISA detection of STING Lys48 polymerized multi-ubiquitination in HEK293T cells; type: cell-based, human; conditions: with MG132, three hours, FIG. 8
Procedure: It was confirmed whether the oxopiperazine derivatives of Formulas 1 to 6 increased the intracellular amount by preventing the degradation of STING through TRIM29-mediated Lys48 polymerized multi-ubiquitination (K48 linkage-specific polyubiquitination).
Specifically, HEK293T cells were seeded in a transparent 6-well plate and cultured for one day. […] At this time, only the effect of the compound was quantitatively detected in a manner of using an analysis value of the sample that was not treated with MG132, a proteasome inhibitor that prevents the removal of ubiquitinated proteins, as a control group and subtracting the analysis value from an analysis value of the sample that was treated with MG132. […] The protein concentration of the supernatant was measured by using Bradford assay reagent. […] To confirm the quantitative concentration, a 5× SDS-PAGE loading buffer (Biosesang) was added at the ratio of the manufacturer to a portion of the sample, and then the resultant was treated at 95° C. for five minutes and analyzed by using the western blotting method described above. […]

STING = molecular target: T1, STING (Mus musculus, UniProt Q3TBT3); assay: Western blotting of intracellular STING in Raw264.7 cells; type: cell-based; set-up: endogenous in cells; host or cells: Raw264.7; conditions: concentration-dependent, FIG. 16
T1 sequence (Q3TBT3 1-378): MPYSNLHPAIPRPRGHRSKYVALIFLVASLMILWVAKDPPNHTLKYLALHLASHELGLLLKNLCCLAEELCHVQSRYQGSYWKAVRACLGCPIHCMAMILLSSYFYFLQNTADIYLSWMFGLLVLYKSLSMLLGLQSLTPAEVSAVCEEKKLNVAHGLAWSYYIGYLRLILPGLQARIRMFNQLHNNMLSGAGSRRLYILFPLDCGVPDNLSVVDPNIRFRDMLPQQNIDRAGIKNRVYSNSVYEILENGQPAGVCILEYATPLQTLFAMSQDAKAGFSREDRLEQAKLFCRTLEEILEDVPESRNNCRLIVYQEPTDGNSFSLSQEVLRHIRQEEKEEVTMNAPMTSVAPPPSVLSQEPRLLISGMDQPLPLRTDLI

[2] = tested on: bone-marrow derived dendritic cells (BMDC) and OT-1 T cells; assay: BMDC cross-antigen presentation with killed MC38 or MC38-OVA tumor cells; type: cell-based, mouse; conditions: with cGAMP, FIG. 19
Procedure: In the same manner as <Experimental Example 7> above, mouse bone marrow-derived cells were obtained and differentiated. On the sixth day, 2×10^6 dendritic cells (BMDC) were co-cultured with 2×10^6 of MC38 or MC38-OVA tumor cells frozen-thawed three times and treated with cGAMP and/or the compound of Formula 1 in various concentrations. The cells were cultured at 37° C. in a 5% CO2 incubator for 24 hours, and then flow cytometry of dendritic cell activation markers (CD80, CD86, MHC II) was performed. Then, 5×10^4 cells were incubated with 2×10^5 CFSE-labeled OT-1 T cells (OVA-specific CD8^+ T cells) to observe OT-1 T cell proliferation.

Structure (SMILES): COc1ccc(CC2=CN(c3ccc(C(=O)NC[C@H]4CCCO4)cc3[N+](=O)[O-])[C@H](C(C)C)C(=O)N2Cc2ccc(O)cc2)cc1 [Formula 1, 4-((R)-4-(4-hydroxybenzyl)-2-isopropyl-5-(4-methoxybenzyl)-3-oxo-3,4-dihydropyrazin-1 (2H)-yl)-3-nitro-N-(((R)-tetrahydrofuran-2-yl)methyl)benzamide]
- TRIM29-mediated lysine 48 polymerized multi-ubiquitination of STING [1]: inhibited
- intracellular amount of STING (STING): increased
- OT-1 T cell proliferation (cross-antigen presentation) ([2]; MC38 control group): such an effect did not occur at all
- OT-1 T cell proliferation (cross-antigen presentation) ([2]; killed MC38-OVA cells, concentration-dependent): promoted cell proliferation
